Test results: patent US20220062391A1, “ENHANCING EPITHELIAL OR ENDOTHELIAL BARRIER FUNCTION” (UNIVERSITY OF ROCHESTER, priority 2019, published 2022)

Tests used:
ATI cells [1] = experiment: TEER of alveolar epithelial monolayers on transwell plates; type: cell-based, rat
Description: Primary rat alveolar epithelial type II cells were isolated using an IgG-panning approach as described by Dobbs (74). Briefly, lungs from Sprague Dawley rats (200-250 g) were surgically removed and perfused, lavaged, and treated with 1 mg/ml of elastase (WORTHINGTON BIOCHEMICAL, Lakewood, N.J.) to release the epithelial cells. Next, lung lobes were separated, cut, minced, filtered and spin down at 1500 rpm for 15 minutes. The cells were resuspended with DMEM without FBS and transferred into two IgG plates. After incubation at 37° C. for one hour, non-adhered cells (predominately ATII cells) were transferred to a new tube and centrifuged at 1500 rpm for 15 minutes. The cells were resuspended in DMEM containing 10% FBS and plated on fibronectin coated plates. To coat the plates with fibronectin, 20 μg/ml of fibronectin from bovine plasma (F1141, SIGMA-ALDRICH, St. Louis, Mo.) was added to 100 mm culture plates (using 3 ml) or the upper chamber of the transwell plates (using 400 μl). Plates were left at 37° C. for 3 hours. Residual solution was removed, and plates were dried in a tissue culture hood for at least 30 minutes before cells were added. 16HBE14o-human bronchial epithelial cells were cultured in Dulbecco's modified Eagle's medium as previously reported (18).
Prior to the assay, cells cultured on 12-well transwell plates (12 mm transwell with 0.4 μm pore polyester membrane insert; CORNING, Corning, N.Y.) were moved to the tissue culture hood for 15 minutes to allow the medium equilibrate to room temperature. TEER was measured using an epithelial voltmeter (EVOM2; WORLD PRECISION INSTRUMENTS, Sarasota, Fla.). Three readings were recorded and averaged for each well. To calculate TEER, the resistance of the fibronectin-coated insert without cells (blank resistance) was subtracted from the measured resistance, then multiplied by 1.12 cm^2 to account for the surface area of the insert.

ATI cells [2] = experiment: Western blot of tight junction proteins in transfected ATI cells; type: cell-based, rat; conditions: 24 hours
Description: (§1) Primary rat alveolar epithelial type II cells were isolated using an IgG-panning approach as described by Dobbs (74). Briefly, lungs from Sprague Dawley rats (200-250 g) were surgically removed and perfused, lavaged, and treated with 1 mg/ml of elastase (WORTHINGTON BIOCHEMICAL, Lakewood, N.J.) to release the epithelial cells. Next, lung lobes were separated, cut, minced, filtered and spin down at 1500 rpm for 15 minutes. The cells were resuspended with DMEM without FBS and transferred into two IgG plates. After incubation at 37° C. for one hour, non-adhered cells (predominately ATII cells) were transferred to a new tube and centrifuged at 1500 rpm for 15 minutes. The cells were resuspended in DMEM containing 10% FBS and plated on fibronectin coated plates. […]
(§2) Cells were lysed with reporter lysis buffer (lx, PROMEGA), supplemented with protease inhibitor (COMPLETE, Mini, EDTA-free tablets; ROCHE, Basel, Switzerland) and phosphatase inhibitor (PHOSSTOP Phosphatase Inhibitor Cocktail; ROCHE, Basel, Switzerland). […] After incubation with secondary antibody and development, bands were detected on film (BIOMAX MR film; […] HEALTH, Rochester, N.Y.) or using the CHEMIDOC IMAGING SYSTEM (BIO-RAD, Hercules, Calif.) and quantified using the IMAGE STUDIO™ LITE software (LI-COR, Lincoln, Nebr.) or the IMAGE LAB SOFTWARE (BIO-RAD, Hercules, Calif.).

16HBE14o-cells = experiment: Doxycycline-inducible β1 expression, immunoblot in 16HBE14o- cells; type: cell-based, human; conditions: 24 hours post transfection
Description: as §1, with “minutes.” for “minutes. The cells were resuspended in DMEM containing 10% FBS and plated on fibronectin coated plates.”
as §2
Given that the β1 subunit increased protein expressions of tight junctions in ATI cells, their localization in these cells was analyzed. […]

mouse lungs = experiment: Alveolar fluid clearance (AFC) in live mice; type: in vivo; conditions: two days after gene transfer, or 10^−8 mol/L in the instillation solution
Description: (§3) Male C57BL/6 mice (9-11 weeks) were anesthetized with isoflurane and 100 μg of each individual plasmid were delivered in 50 μl of 10 mM Tris-HCl (pH 8.0), 1 mM EDTA, and 140 mM NaCl, to mouse lungs by aspiration (when both β1 and MRCKα were delivered, 100 μg of each were administered prior to electroporation) as previously described in Lin, X., et al., Gene Ther 23: 489-99. Eight, 10 msec square wave pulses at a field strength of 200 V/cm were immediately applied using cutaneous electrophysiology electrodes (MEDTRONIC, Redmond, Wash.) placed on the mouse chest with an ECM830 electroporator (BTX, HARVARD […], Holliston, Mass.). […]
The method used in this study was performed in live mice as previously described in Lin, X., et al., Gene Ther 23: 489-99 and Mutlu, G. M., et al., Circ Res 94: 1091-100. […] Protein concentration in the aspirate was assessed using a Bradford assay (BIO-RAD LABORATORIES, Hercules, Calif.) and AFC was calculated using following equation: AFC=1−(C0/C30), where C0, is the protein concentration of the instillate before instillation, and C30 is the protein concentration of the sample obtained at the end of 30 minutes of mechanical ventilation. Clearance is expressed as a percentage of total instilled volume cleared/30 minutes. […]

ATI cells [3] = experiment: Permeability to fluorescent dextran tracers; type: cell-based, rat; conditions: 1 μg/ml
Description: Permeability to fluorescent tracers was measured using a modified protocol previous described (76). […] Five hundred microliters of freshly prepared solution containing 100 μg/mL of 40 kD FITC-dextran and 100 μg/mL of 31(D Texas Red-dextran were added to the apical compartment. One thousand microliters of P buffer was added to the bottom chamber. After 2 hours incubation at 37° C., 100 μl of the basal medium was collected and the fluorescence of the transported dextran was measured with a SPECTRAMAX M5 multi-mode microplate reader (MOLECULAR DEVICES, San Jose, Calif.). The excitation wavelength and emission wavelength are 492 nm and 520 nm for FITC and 596 nm and 615 nm for Texas-red, respectively. The quantity of tracer was calculated by comparison with a standard curve. A permeability coefficient was determined using the following equation (77): Pc (cm/min)=V/(A×Co)×(C/T) where V is volume in the lower compartment (1 ml), A is the surface area of the membrane (1.12 cm^2 for the 12-well transwell used here), Co is the dextran concentration in the upper compartment at time 0 (0.1 mg/ml), and C is the dextran concentration in the lower compartment at time T of sampling (2 hours).

LPS-injured lungs [4] = experiment: Western blot of occludin and ZO-1 in mouse lungs; type: in vivo; conditions: LPS 5 mg/kg
Description: as §3, with “Mass.). All LPS-challenged mice received 5 mg/kg of LPS (Escherichia coli 055:B5, 15,000,000 endotoxin units/mg protein; SIGMA-ALDRICH, St. Louis, Mo.) in 50 μl of phosphate-buffered saline (PBS) by aspiration, one day before gene transfer (n=5-11 mice/group).” for “Mass.).”
Western blots were performed as previously described in Lin, X., et al. Am J Respir Crit Care Med 183: 1689-97. […] After incubation with secondary antibody and development, bands were detected using the CHEMIDOC Imaging System (BIO-RAD, Hercules, Calif.) and quantified using the IMAGE STUDIO™ LITE software (LI-COR, Lincoln, Nebr.) or the IMAGE LAB software (BIO-RAD, Hercules, Calif.).

LPS-injured lungs [5] = experiment: Pulmonary permeability by Evan's blue dye leakage; type: in vivo, mouse; conditions: LPS 5 mg/kg intratracheal, compared with naïve mice
Description: as §3, with “Mass.). All LPS-challenged mice received 5 mg/kg of LPS (Escherichia coli 055:B5, 15,000,000 endotoxin units/mg protein; SIGMA-ALDRICH, St. Louis, Mo.) in 50 μl of phosphate-buffered saline (PBS) by aspiration, one day before gene transfer (n=5-11 mice/group).” for “Mass.).”
Pulmonary permeability was measured by Evan's blue dye (EBD) leakage from blood into airways (Baluk, P., et al., Br J Pharmacol 126: 522-8 and Mammoto, A., et al., Nat Commun 4: 1759). […] 24 hrs later, EBD was extracted in formamide (FISHER […]) at 37° C. for 24 hrs and quantified by measuring spectrophotometrically at 620 nm and 740 nm, correcting by using formula E620 (EBD)=E620−(1.426×E740+0.030) (Standiford, T. J., et al., J Immunol 155: 1515-24).

[6] = biological target: MRCKα of primary rat alveolar type I (ATI) cells (rat) (UniProt O54874); experiment: cell-based or functional assay
Chain of UniProt O54874 (O54874 whole entry): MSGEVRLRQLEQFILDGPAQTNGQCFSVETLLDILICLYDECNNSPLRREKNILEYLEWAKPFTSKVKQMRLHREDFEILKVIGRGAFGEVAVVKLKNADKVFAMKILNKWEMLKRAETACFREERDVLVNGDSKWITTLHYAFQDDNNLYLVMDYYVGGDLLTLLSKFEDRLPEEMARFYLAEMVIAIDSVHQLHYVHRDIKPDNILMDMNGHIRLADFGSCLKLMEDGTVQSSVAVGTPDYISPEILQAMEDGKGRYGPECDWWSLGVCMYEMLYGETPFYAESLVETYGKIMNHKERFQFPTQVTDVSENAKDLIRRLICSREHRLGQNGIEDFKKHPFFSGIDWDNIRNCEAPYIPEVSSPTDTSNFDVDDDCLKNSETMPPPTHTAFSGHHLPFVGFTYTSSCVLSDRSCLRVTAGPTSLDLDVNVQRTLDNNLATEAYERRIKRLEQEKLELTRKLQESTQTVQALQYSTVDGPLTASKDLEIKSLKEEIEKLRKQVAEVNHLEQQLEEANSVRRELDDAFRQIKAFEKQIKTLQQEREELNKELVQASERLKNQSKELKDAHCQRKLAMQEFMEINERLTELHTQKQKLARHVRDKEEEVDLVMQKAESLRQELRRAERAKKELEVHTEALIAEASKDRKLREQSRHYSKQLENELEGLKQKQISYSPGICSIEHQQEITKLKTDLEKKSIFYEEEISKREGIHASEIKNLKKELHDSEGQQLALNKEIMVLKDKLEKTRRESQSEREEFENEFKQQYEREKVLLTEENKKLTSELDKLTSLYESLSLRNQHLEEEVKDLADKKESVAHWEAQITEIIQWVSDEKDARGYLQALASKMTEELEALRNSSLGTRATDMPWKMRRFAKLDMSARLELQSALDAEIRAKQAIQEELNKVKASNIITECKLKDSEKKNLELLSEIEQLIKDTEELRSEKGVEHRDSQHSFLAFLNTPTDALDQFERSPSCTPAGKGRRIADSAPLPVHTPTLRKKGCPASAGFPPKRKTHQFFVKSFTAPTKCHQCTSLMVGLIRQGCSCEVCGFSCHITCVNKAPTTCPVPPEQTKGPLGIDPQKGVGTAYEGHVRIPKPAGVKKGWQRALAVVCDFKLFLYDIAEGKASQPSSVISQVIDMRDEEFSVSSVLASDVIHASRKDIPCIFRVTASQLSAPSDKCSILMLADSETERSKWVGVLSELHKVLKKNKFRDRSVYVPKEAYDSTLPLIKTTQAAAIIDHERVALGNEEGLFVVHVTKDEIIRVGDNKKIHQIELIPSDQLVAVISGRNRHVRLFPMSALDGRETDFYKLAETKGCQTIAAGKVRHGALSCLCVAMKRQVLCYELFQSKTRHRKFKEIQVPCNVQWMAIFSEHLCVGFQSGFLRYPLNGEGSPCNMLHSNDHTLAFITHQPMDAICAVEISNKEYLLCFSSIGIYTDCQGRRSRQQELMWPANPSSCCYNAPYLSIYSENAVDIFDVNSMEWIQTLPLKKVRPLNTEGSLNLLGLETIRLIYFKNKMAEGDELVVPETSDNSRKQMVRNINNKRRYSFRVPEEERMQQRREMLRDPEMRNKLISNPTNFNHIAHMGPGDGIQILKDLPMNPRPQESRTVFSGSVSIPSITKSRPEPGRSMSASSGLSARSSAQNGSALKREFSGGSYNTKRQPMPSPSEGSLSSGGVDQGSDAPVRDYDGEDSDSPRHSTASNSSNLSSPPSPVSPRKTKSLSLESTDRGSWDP

`O=C(Nc1cn[nH]c1-c1ccccn1)c1nn(C2CCNCC2)cc1Cl` [BDP5290] was tested, and the “baseline TEER” value (ATI cells [1]; 2 μM inhibitor) was “decreased” and the “β1 subunit-induced increase of barrier integrity (TEER) under MRCKα inhibition” value (ATI cells [1]; 2 μM inhibitor) was “prevented β1 subunit-induced increase of barrier integrity”.
`Cc1ccc2c(c1)C(=O)C1(O)CCN(c3ccccc3)C1=N2` (stereo not drawn) [blebbistatin] was tested, and the “β1-induced upregulation of occludin in presence of blebbistatin” value (ATI cells [2]; ATI cells transfected with rat β1, blebbistatin 1, 10 or 100 uM) was “significantly suppress the upregulation of occludin” and the “β1-induced increase in TEER under myosin II inhibition” value (ATI cells [1]; pretreatment 20 μM) was “prevented the increase in TEER”.
With `C[C@H]1c2cccc(O)c2C(=O)C2=C(O)[C@]3(O)C(=O)C(C(N)=O)=C(O)[C@@H](N(C)C)[C@@H]3[C@@H](O)[C@@H]21` [doxycycline] the “doxycycline concentration of maximum induction of β1 subunit” value (16HBE14o-cells) was 1000 ng/mL.
`C[C@@H]1O[C@@H](O[C@H]2C[C@@H](O)[C@]3(CO)[C@H]4[C@H](O)C[C@]5(C)[C@@H](C6=CC(=O)OC6)CC[C@]5(O)[C@@H]4CC[C@]3(O)C2)[C@H](O)[C@H](O)[C@H]1O` [ouabain] was tested, and the “β1-induced upregulation of occludin in presence of ouabain” value (ATI cells [2]; ATI cells transfected with rat β1, ouabain 10 nM, 100 nM or 1000 nM) was “did not block the upregulation of occludin”.
In the case of `CCC(NC(C)C)C(O)c1ccc(O)c2[nH]c(=O)ccc12` (stereo not drawn) [procaterol, Procaterol], the “increase of AFC” value (mouse lungs) is reported as 145%.
In the case of lipopolysaccharide, the TEER after lipopolysaccharide (ATI cells [1]; 1 μg/ml, 24 hours) is reported as “decreased TEER”, the “permeability to 4 kD Dextran after lipopolysaccharide” value (ATI cells [3]) is reported as “increased permeability” and the “levels of ZO-1 and occludin in lungs after LPS injury” value (LPS-injured lungs [4]) is reported as “reduced levels”. The “increase of pulmonary leakage in response to LPS” value (LPS-injured lungs [5]) was “three- to four-fold”.
For “rat Na+, K+-ATPase β1 subunit (from UniProt P07340 1-304)”, the phosphorylation of myosin light chain 2 (MLC2) at Ser19, western blot after β1 subunit overexpression in ATI cells [6] was 2 fold.
